# Measurements from paper PMC4383039 (Science translational medicine, 2015).
# Where two headings read alike, the source gives them in different places. Marks after values point to notes of the source that are not given here.
# Legend:
# Mtb H37Rv [1] = conditions: cited from earlier work
# Mtb H37Rv [2] = assay: microbe, parasite or virus in culture; type: cell-based, Mycobacterium tuberculosis; conditions: for MIC50: Mycobacterium tuberculosis, H37RV
# InhA [3] = molecular target: T1, InhA (Mycobacterium tuberculosis, UniProt P9WGR1); assay: biochemical
# [4] = molecular target: InhA with cofactor (NADH or NAD+) (Mycobacterium tuberculosis, UniProt P9WGR1); type: binding
# InhA-NADH complex = InhA-NADH complex (Mycobacterium tuberculosis, UniProt P9WGR1); assay: biochemical; type: binding
# [5] = molecular target: apo-InhA, InhA-NAD+ complex (Mycobacterium tuberculosis, UniProt P9WGR1); type: binding
# mycolates = type: cell-based, Mycobacterium tuberculosis
# in vitro replicating Mtb = type: cell-based, Mycobacterium tuberculosis
# Mtb H37Rv [6] = system: Mtb H37Rv; set-up: species or system BALB/c mice; conditions: mouse, in vivo
# InhA [7] = molecular target: T1, InhA; conditions: read-out: InhA IC50; cited from earlier work
# InhA with cofactor (NADH or NAD+), sequence (P9WGR1 whole entry, looked up): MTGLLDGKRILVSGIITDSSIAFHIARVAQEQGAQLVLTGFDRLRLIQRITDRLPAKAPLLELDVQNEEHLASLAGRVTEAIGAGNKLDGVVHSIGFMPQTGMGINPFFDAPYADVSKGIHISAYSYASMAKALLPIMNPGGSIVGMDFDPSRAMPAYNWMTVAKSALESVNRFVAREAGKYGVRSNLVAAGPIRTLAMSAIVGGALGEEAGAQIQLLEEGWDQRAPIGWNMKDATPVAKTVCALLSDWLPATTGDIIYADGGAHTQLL
# InhA-NADH complex, sequence (P9WGR1 whole entry, looked up, one chain of several): as the sequence (P9WGR1 whole entry, looked up) above
# T1 sequence (P9WGR1 whole entry, looked up): as above
# apo-InhA, InhA-NAD+ complex, sequence (P9WGR1 whole entry, looked up, one chain of several): as the sequence (P9WGR1 whole entry, looked up) above
compound,measurement,setting,value
COc1nc2ccc(Br)cc2cc1[C@@H](c1ccccc1)[C@@](O)(CCN(C)C)c1cccc2ccccc12 [bedaquiline],MIC50,Mtb H37Rv [1],0.05 µM
CCc1cc(C(N)=S)ccn1 [ethionamide],MIC50,Mtb H37Rv [2]; read-out: Compound MIC50,1.66 µM
[H]/N=C(/N)N[C@H]1[C@H](O)[C@@H](O)[C@H](O[C@@H]2O[C@@H](C)[C@](O)(C=O)[C@H]2O[C@@H]2O[C@@H](CO)[C@H](O)[C@@H](O)[C@@H]2NC)[C@@H](N/C(N)=N\[H])[C@@H]1O [streptomycin],MIC50,Mtb H37Rv [2]; read-out: Compound MIC50,0.08 µM
"CC(C)Cc1cc(O)c(-c2ccccc2)c(=O)[nH]1 [NITD-529, 4-hydroxy-6-isobutyl-3-phenylpyridin-2(1H)-one]",Mtb MIC50,Mtb H37Rv [2],1.54 µM
same,MIC50,"Mtb H37Rv [2]; 120 h, read-out: Mtb MIC50",1.5 µM
same,MIC50,Mtb H37Rv [2]; read-out: Compound MIC50,1.54 µM
same,IC50,InhA [3],9.6 ± 0.7 µM
same,"Thermaflor assay Tm, E-NAD+-I",[4],50.3 °C
same,"Thermaflor assay Tm, E-NADH-I",[4],54.7 °C
same,Thermaflor assay ΔTm,[4],4.4 °C
same,ITC (+NADH) N,InhA-NADH complex,0.97 ± 0.23
same,Kd,InhA-NADH complex,25 ± 7 µM
same,ITC (+NADH) ΔH,InhA-NADH complex; 25°C,13100 ± 4202 cal/mol
same,ITC (+NADH) ΔS,InhA-NADH complex; 25°C,-22.9 cal/mol
same,ITC binding to InhA,[5],no binding was observed
same,effect on mycolates,mycolates,dose-dependent inhibition of mycolates
NNC(=O)c1ccncc1 [isoniazid],MIC50,Mtb H37Rv [2]; read-out: Compound MIC50,0.25 µM
same,concentration showing rapid killing (in vitro cidal-activity profile),in vitro replicating Mtb,0.5 µM
same,efficacy compared with reference drugs / NITD-916,Mtb H37Rv [6],significantly more potent than NITD-916
same,MIC50,Mtb H37Rv [1],0.33 µM
CO[C@H]1/C=C/O[C@@]2(C)Oc3c(C)c(O)c4c(O)c(c(/C=N/N5CCN(C)CC5)c(O)c4c3C2=O)NC(=O)/C(C)=C\C=C\[C@H](C)[C@H](O)[C@@H](C)[C@@H](O)[C@@H](C)[C@H](OC(C)=O)[C@@H]1C [rifampicin],efficacy compared with reference drugs / NITD-916,Mtb H37Rv [6],significantly more potent than NITD-916
c1ccc(Oc2ccccc2)cc1 [PT70],"Thermaflor assay Tm, E-NAD+-I",[4],66.7 °C
same,"Thermaflor assay Tm, E-NADH-I",[4],60.1 °C
same,Thermaflor assay ΔTm,[4],-6.6 °C
same,Mtb MIC50,Mtb H37Rv [1],11 ^a μM
same,IC50,InhA [7],< 50 nM
O=[N+]([O-])c1cn2c(n1)OC[C@@H](OCc1ccc(OC(F)(F)F)cc1)C2 [PA-824],MIC50,Mtb H37Rv [1],0.4 µM
